Experimental data taken from PubChem BioAssay (NCI).
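All cell lines were grown in 96-well plates and treated with compound for 48 hours. GI50: concentration for 50% inhibition of growth. TGI: concentration producing complete growth inhibition.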

What was measured:
Experiment in all cases: growth of human tumour cells (NCI), 48 h
[1] = system: HL-60(TB) leukemia
[2] = system: U251 CNS
[3] = system: PC-3 prostate
[4] = system: OVCAR-3 ovarian
[5] = system: UACC-257 melanoma
[6] = system: SK-MEL-5 melanoma
[7] = system: DU-145 prostate
[8] = system: MDA-N
[9] = system: SF-539 CNS
[10] = system: NCI-H522 lung
[11] = system: HOP-62 NSCLC
[12] = system: A549 NSCLC
[13] = system: M14 melanoma
[14] = system: MDA-MB-435
[15] = system: SR leukemia
[16] = system: COLO 205 colon
[17] = system: UO-31 renal
[18] = system: SNB-75 CNS
[19] = system: SF-295 CNS
[20] = system: RXF 393 renal
[21] = system: OVCAR-4 ovarian
[22] = system: SF-268 CNS
[23] = system: T-47D breast
[24] = system: MOLT-4 leukemia
[25] = system: SK-MEL-2 melanoma
[26] = system: NCI-H460 lung
[27] = system: SN12C renal
[28] = system: CAKI-1 renal
[29] = system: OVCAR-8 ovarian
[30] = system: HOP-92 NSCLC
[31] = system: CCRF-CEM leukemia
[32] = system: HT29 colon
[33] = system: ACHN renal
[34] = system: K-562 leukemia
[35] = system: 786-0 renal
[36] = system: HS 578T breast
[37] = system: HCT-15 colon
[38] = system: UACC-62 melanoma
[39] = system: RPMI-8226 leukemia
[40] = system: IGROV1 ovarian
[41] = system: OVCAR-5 ovarian
[42] = system: LOX IMVI melanoma
[43] = system: MDA-MB-231 breast
[44] = system: KM12 colon
[45] = system: MCF7 breast
[46] = system: NCI/ADR-RES ovarian
[47] = system: EKVX NSCLC
[48] = system: SNB-19 CNS
[49] = system: SW-620 colon
[50] = system: NCI-H23 lung
[51] = system: A498 renal
[52] = system: MALME-3M melanoma
[53] = system: SK-MEL-28 melanoma
[54] = system: NCI-H226 lung
[55] = system: HCT-116 colon
[56] = system: TK-10 renal
[57] = system: HCC-2998 colon
[58] = system: BT-549 breast
[59] = system: SK-OV-3 ovarian

In the case of `CCCN(CCC)C(=O)c1c(N2CCN(C)CC2)c2cccnc2n2c(C)cnc12`, the TGI [1] is reported as greater than 100 µM, the TGI [2] is reported as greater than 100 µM and the TGI [3] is reported as greater than 100 µM. The TGI [4] was greater than 100 µM, the TGI [5] was greater than 100 µM and the TGI [6] was greater than 100 µM. For the same molecule, the TGI [7] was greater than 100 µM, the TGI [8] was greater than 100 µM and the TGI [9] was greater than 100 µM. It also gave a TGI [10] greater than 100 µM, a TGI [11] greater than 100 µM and a TGI [12] greater than 100 µM. It also gave a TGI [13] greater than 100 µM, a TGI [14] greater than 100 µM and a TGI [15] greater than 100 µM. It also gave a TGI [16] greater than 100 µM, a TGI [17] greater than 100 µM and a TGI [18] greater than 100 µM. The TGI [19] was greater than 100 µM, the TGI [20] was greater than 100 µM and the TGI [21] was greater than 100 µM. For the same molecule, the TGI [22] was greater than 100 µM, the TGI [23] was greater than 100 µM and the TGI [24] was greater than 100 µM. It also gave a TGI [25] greater than 100 µM, a TGI [26] greater than 100 µM and a TGI [27] greater than 100 µM. The TGI [28] was greater than 100 µM, the TGI [29] was greater than 100 µM and the TGI [30] was greater than 100 µM. The TGI [31] was greater than 100 µM, the TGI [32] was greater than 100 µM and the TGI [33] was greater than 100 µM. For the same molecule, the TGI [34] was greater than 100 µM, the TGI [35] was greater than 100 µM and the TGI [36] was greater than 100 µM. It also gave a TGI [37] greater than 100 µM, a TGI [38] greater than 100 µM and a TGI [39] greater than 100 µM. It also gave a TGI [40] greater than 100 µM, a TGI [41] greater than 100 µM and a TGI [42] greater than 100 µM. The TGI [43] was greater than 100 µM, the TGI [44] was greater than 100 µM and the TGI [45] was greater than 100 µM. For the same molecule, the TGI [46] was greater than 100 µM, the TGI [47] was greater than 100 µM and the TGI [48] was 68.1 µM. It also gave a TGI [49] of 45.5 µM, a TGI [50] greater than 100 µM and a TGI [51] greater than 100 µM. It also gave a TGI [52] greater than 100 µM, a TGI [53] greater than 100 µM and a TGI [54] greater than 100 µM. It also gave a TGI [55] greater than 100 µM and a TGI [56] greater than 100 µM.
`CCS(=O)(=O)c1ccc(OC)c(Nc2ncc(-c3cccc(F)c3)o2)c1` was tested, and the GI50 [1] was greater than 25 µM, the TGI [1] was greater than 25 µM and the GI50 [2] was greater than 25 µM. It also gave a TGI [2] greater than 25 µM, a GI50 [3] greater than 25 µM and a TGI [3] greater than 25 µM. The GI50 [4] was greater than 25 µM, the TGI [4] was greater than 25 µM and the GI50 [5] was greater than 25 µM. The TGI [5] was greater than 25 µM, the GI50 [57] was greater than 25 µM and the TGI [57] was greater than 25 µM. It also gave a GI50 [6] greater than 25 µM, a TGI [6] greater than 25 µM and a GI50 [7] greater than 25 µM. For the same molecule, the TGI [7] was greater than 25 µM, the GI50 [58] was greater than 25 µM and the TGI [58] was greater than 25 µM. For the same molecule, the GI50 [9] was greater than 25 µM, the TGI [9] was greater than 25 µM and the GI50 [10] was greater than 25 µM. For the same molecule, the TGI [10] was greater than 25 µM, the GI50 [11] was greater than 25 µM and the TGI [11] was greater than 25 µM. The GI50 [12] was greater than 25 µM, the TGI [12] was greater than 25 µM and the GI50 [13] was greater than 25 µM. It also gave a TGI [13] greater than 25 µM, a GI50 [14] greater than 25 µM and a TGI [14] greater than 25 µM. It also gave a GI50 [15] greater than 25 µM, a TGI [15] greater than 25 µM and a GI50 [16] greater than 25 µM. For the same molecule, the TGI [16] was greater than 25 µM, the GI50 [17] was greater than 25 µM and the TGI [17] was greater than 25 µM. The GI50 [18] was greater than 10.6 µM, the TGI [18] was greater than 25 µM and the GI50 [19] was greater than 25 µM. The TGI [19] was greater than 25 µM, the GI50 [20] was greater than 20.8 µM and the TGI [20] was greater than 25 µM. For the same molecule, the GI50 [21] was greater than 25 µM, the TGI [21] was greater than 25 µM and the GI50 [22] was greater than 25 µM. It also gave a TGI [22] greater than 25 µM, a GI50 [23] greater than 25 µM and a TGI [23] greater than 25 µM. For the same molecule, the GI50 [24] was greater than 25 µM, the TGI [24] was greater than 25 µM and the GI50 [25] was greater than 25 µM. The TGI [25] was greater than 25 µM, the GI50 [26] was greater than 25 µM and the TGI [26] was greater than 25 µM. For the same molecule, the GI50 [27] was greater than 25 µM, the TGI [27] was greater than 25 µM and the GI50 [28] was greater than 25 µM. The TGI [28] was greater than 25 µM, the GI50 [29] was greater than 25 µM and the TGI [29] was greater than 25 µM. For the same molecule, the GI50 [30] was greater than 25 µM, the TGI [30] was greater than 25 µM and the GI50 [31] was greater than 25 µM. The TGI [31] was greater than 25 µM, the GI50 [32] was greater than 25 µM and the TGI [32] was greater than 25 µM. For the same molecule, the GI50 [33] was greater than 25 µM, the TGI [33] was greater than 25 µM and the GI50 [34] was greater than 25 µM. It also gave a TGI [34] greater than 25 µM, a GI50 [35] greater than 25 µM and a TGI [35] greater than 25 µM. It also gave a GI50 [36] of 2.5 µM, a TGI [36] greater than 22.3 µM and a GI50 [37] greater than 25 µM. The TGI [37] was greater than 25 µM, the GI50 [38] was greater than 25 µM and the TGI [38] was greater than 25 µM. For the same molecule, the GI50 [39] was greater than 25 µM, the TGI [39] was greater than 25 µM and the GI50 [40] was greater than 25 µM. The TGI [40] was greater than 25 µM, the GI50 [41] was greater than 25 µM and the TGI [41] was greater than 25 µM. The GI50 [42] was greater than 25 µM, the TGI [42] was greater than 25 µM and the GI50 [43] was greater than 25 µM. The TGI [43] was greater than 25 µM, the GI50 [44] was 0.649 µM and the TGI [44] was greater than 25 µM. The GI50 [45] was greater than 25 µM, the TGI [45] was greater than 25 µM and the GI50 [46] was greater than 25 µM. It also gave a TGI [46] greater than 25 µM, a GI50 [47] greater than 25 µM and a TGI [47] greater than 25 µM. For the same molecule, the GI50 [48] was greater than 25 µM, the TGI [48] was greater than 25 µM and the GI50 [49] was greater than 25 µM. The TGI [49] was greater than 25 µM, the GI50 [50] was greater than 25 µM and the TGI [50] was greater than 25 µM. The GI50 [51] was 0.34 µM, the TGI [51] was greater than 25 µM and the GI50 [52] was greater than 25 µM. For the same molecule, the TGI [52] was greater than 25 µM, the GI50 [53] was greater than 25 µM and the TGI [53] was greater than 25 µM. The GI50 [59] was greater than 25 µM, the TGI [59] was greater than 25 µM and the GI50 [54] was 0.513 µM. It also gave a TGI [54] greater than 25 µM, a GI50 [55] greater than 25 µM and a TGI [55] greater than 25 µM. It also gave a GI50 [56] greater than 25 µM and a TGI [56] greater than 25 µM.
